The source of these data is paper PMC5499580 (Nucleic Acids Research, 2017).

For one assay, the system named is 23S rRNA mutation A2503G. Particulars: cited from earlier work.
Assay [1] concerns ribosome. Conditions: compared with MADU on osmC mRNA; cited from earlier work.
For assay [2], the system named is ribosome. The assay can be described thus: Toe-printing analysis. In kind it is biochemical.
Assay [3] relates to E. coli S30 extract translation system. It counts as biochemical. Particulars: 5 μM, luciferase mRNA, 37°C, 30 min.
In a further assay the test system is VatB acetyltransferase. Conditions: cited from earlier work.
The subject of assay [4] is ribosome. Conditions: PURExpress, osmC mRNA; 50 μM; worded as known, no reference given; cited from earlier work.
Assay [5] has as its system peptidyl transferase reaction. Particulars: polyU-guided in vitro translation system; cited from earlier work.

Regarding `O=C(N[C@H](CO)[C@H](O)c1ccc([N+](=O)[O-])cc1)C(Cl)Cl` [chloramphenicol], in the assay with 23S rRNA mutation A2503G, the “Resistance conferred by A2503G” value is “confers resistance”.
As for `CC1=C\[C@@H](O)CC(=O)Cc2nc(co2)C(=O)N2CCC[C@@H]2C(=O)O[C@H](C(C)C)[C@H](C)/C=C/C(=O)NC\C=C\1` [pristinamycin IIB], the “Ribosome stalling in toe-printing” value in the assay with ribosome [1] was “ribosome stalling at the start codon”.
For the compound `CC1=C\[C@@H](O)C[C@@H](O)Cc2nc(co2)C(=O)N[C@H](C)C(=O)O[C@H](C(C)C)[C@H](C)/C=C/C(=O)NC\C=C\1` [MADU, madumycin II], the “Ribosome stalling on osmC mRNA” value in the assay with ribosome [2] (PURExpress cell-free system, osmC mRNA, 0.5, 5 and 50 μM MADU) is given as “dose-dependent ribosome stalling at the start codon”. Also, in the assay with ribosome [2] (PURExpress, 5 µM MADU, mutated osmC mRNAs), the “Progression to second codon, Gly vs Ile second codon” value was “noticeably more ribosomes progressing to the second codon in the case of glycine as compared with the isoleucine”. For the same compound, the “Reduction of the efficiency of protein synthesis” value in assay [3] is on record as above 100 fold. Besides, the “Effect of VatB acetylation of C12-hydroxyl on activity” value in the assay with VatB acetyltransferase is “renders the drug inactive”.
In the case of `C=C(NC(=O)C(=C)NC(=O)c1csc(C2=N[C@@H]3c4csc(n4)[C@H]4NC(=O)c5csc(n5)[C@H]([C@](C)(O)[C@@H](C)O)NC(=O)[C@H]5CSC(=N5)/C(=C/C)NC(=O)[C@H]([C@@H](C)O)NC(=O)c5csc(n5)[C@]3(CC2)NC(=O)[C@H](C)NC(=O)C(=C)NC(=O)[C@H](C)NC(=O)[C@H]([C@@H](C)CC)N[C@@H]2C=Cc3c([C@H](C)O)cc(nc3[C@H]2O)C(=O)O[C@@H]4C)n1)C(N)=O` [Thiostrepton, thiostrepton], the “Ribosome stalling by positive control (first codon)” value in the assay with ribosome [4] is “stall ribosomes at the first codon”.
Turning to `CC1=C\[C@@H](O)CC(=O)Cc2nc(co2)C(=O)N2CCC=C2C(=O)O[C@H](C(C)C)[C@H](C)/C=C/C(=O)NC\C=C\1` [virginiamycin M], the “Effect on peptidyl transferase reaction” value in assay [5] was “specifically inhibits the peptidyl transferase reaction”.
